Values joined by “and” are separate entries in the source; they are usually repeats but may differ in a detail not shown here. Equal values may be shown once.
System: Salmonella Typhimurium strain TA98
Format: cell-based

Aflatoxin B1 [AFB1 control]
MR: 13.75 and 12.35 | Number of mutant colonies/plate: 383 ± 65 colonies/plate | The number of mutant colonies/plate: 385 ± 97 colonies/plate
